Read-outs that look alike come from different tables or passages of the source.
Assays:
[1] = molecular target: JAK1 (Homo sapiens (Human), UniProt P23458); assay: Biochemical kinase assay (33P-ATP filter-binding), JAK1; details: read-out: IC50 JAK1
Text: (§1) Biochemical Kinase Assay Protocol (JAK)
(§2) Reaction Procedure: • 1. […] Detected kinase activity by filter-binding method.

[2] = molecular target: JAK2 (Homo sapiens (Human), UniProt O60674); assay: Biochemical kinase assay (33P-ATP filter-binding), JAK2; details: read-out: IC50 JAK2
Sequence of JAK2 (O60674 whole entry, species assumed): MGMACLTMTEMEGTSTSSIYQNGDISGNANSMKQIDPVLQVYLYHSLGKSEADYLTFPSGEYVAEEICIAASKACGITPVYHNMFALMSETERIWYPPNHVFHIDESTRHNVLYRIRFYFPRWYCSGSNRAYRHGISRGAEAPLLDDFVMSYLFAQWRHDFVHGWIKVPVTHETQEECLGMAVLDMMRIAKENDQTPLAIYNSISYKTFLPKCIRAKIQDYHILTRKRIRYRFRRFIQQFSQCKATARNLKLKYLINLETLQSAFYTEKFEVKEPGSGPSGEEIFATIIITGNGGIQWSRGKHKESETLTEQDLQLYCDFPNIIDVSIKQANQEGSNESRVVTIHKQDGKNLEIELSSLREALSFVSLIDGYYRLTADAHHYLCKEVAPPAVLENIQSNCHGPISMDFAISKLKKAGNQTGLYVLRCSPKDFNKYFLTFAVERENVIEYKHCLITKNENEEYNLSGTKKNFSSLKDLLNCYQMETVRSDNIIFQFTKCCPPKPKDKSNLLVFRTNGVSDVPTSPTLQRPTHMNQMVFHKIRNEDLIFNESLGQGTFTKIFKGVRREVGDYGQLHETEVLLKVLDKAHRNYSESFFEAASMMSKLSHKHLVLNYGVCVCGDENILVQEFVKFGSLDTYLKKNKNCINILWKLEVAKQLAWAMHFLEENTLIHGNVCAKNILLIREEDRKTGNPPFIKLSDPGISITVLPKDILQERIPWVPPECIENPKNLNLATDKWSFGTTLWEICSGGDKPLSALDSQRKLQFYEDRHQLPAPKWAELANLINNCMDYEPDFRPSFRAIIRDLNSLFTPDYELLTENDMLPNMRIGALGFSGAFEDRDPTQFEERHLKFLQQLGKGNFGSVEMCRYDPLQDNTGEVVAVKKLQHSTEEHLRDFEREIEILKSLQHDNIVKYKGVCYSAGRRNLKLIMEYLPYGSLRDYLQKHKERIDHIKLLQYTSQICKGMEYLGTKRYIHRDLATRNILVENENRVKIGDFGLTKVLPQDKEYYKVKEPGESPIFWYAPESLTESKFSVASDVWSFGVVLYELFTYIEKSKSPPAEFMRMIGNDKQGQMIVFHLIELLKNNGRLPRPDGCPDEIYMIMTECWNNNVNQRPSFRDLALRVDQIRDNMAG
Text: as §1, §2

Sequence of JAK1 (P23458 whole entry, species assumed): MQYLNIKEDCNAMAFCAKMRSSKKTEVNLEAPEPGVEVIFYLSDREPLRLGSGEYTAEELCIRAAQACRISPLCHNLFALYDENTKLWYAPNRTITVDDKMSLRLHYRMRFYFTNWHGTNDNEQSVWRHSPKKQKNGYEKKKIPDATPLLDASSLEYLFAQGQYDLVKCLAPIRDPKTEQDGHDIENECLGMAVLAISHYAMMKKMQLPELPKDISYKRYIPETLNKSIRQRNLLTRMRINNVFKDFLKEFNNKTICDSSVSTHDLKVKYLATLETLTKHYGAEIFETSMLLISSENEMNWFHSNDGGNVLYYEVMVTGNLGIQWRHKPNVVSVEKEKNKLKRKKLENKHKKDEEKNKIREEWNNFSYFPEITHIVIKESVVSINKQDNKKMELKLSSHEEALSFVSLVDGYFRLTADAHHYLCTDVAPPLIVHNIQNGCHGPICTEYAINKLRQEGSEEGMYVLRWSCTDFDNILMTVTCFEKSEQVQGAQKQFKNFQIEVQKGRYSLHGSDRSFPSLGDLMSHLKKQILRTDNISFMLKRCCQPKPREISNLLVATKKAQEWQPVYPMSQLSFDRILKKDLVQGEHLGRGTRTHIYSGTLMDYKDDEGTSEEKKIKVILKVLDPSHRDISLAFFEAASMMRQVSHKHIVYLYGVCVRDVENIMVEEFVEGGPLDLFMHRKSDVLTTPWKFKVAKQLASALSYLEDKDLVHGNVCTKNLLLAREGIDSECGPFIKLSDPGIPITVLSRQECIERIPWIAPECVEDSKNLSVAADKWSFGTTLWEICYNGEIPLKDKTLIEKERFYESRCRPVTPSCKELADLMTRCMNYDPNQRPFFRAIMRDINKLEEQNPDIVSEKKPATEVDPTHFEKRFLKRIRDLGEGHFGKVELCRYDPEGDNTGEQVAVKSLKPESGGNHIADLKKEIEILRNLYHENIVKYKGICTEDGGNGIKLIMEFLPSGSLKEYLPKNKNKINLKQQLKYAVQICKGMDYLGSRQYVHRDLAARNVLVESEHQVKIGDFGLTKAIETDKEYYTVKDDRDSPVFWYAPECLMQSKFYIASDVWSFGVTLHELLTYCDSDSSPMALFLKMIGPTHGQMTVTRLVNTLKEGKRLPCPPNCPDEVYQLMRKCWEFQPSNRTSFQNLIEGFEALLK

| SMILES | IC50 ([1]; Table 3a) [nM] | IC50 ([2]; Table 3a) [nM] | IC50 ([1]; Table 3b, comparator compounds) [nM] | IC50 ([2]; Table 3b, comparator compounds) [nM] |
| --- | --- | --- | --- | --- |
| Cc1cnc(Nc2cc3c4c(c2)OCCOB4OC3)nc1N[C@@H]1CCC[C@H]1C#N (relative stereo) [Example 004, (trans)-2-((2-((7,8-dihydro-2H-1,6,9-trioxa-9a-borabenzo [cd]azulen-4-yl)amino)-5-methylpyrimidin-4-yl)amino)cyclopentane-1-carbonitrile] | 1.6 | 49.7 | – | – |
| Cc1cnc(Nc2ccc3c(c2)C=CB(O)O3)nc1N[C@@H]1CCC[C@H]1C#N (relative stereo) [Example 007, (trans)-2-((2-((2-hydroxy-2H-benzo[e][1,2]oxaborinin-6-yl)amino)-5-methylpyrimidin-4-yl)amino)cyclopentane-1-carbonitrile] | 5.3 | 52.6 | – | – |
| Cc1cnc(Nc2ccc3c(c2)C=CB(O)O3)nc1N[C@@H]1CCCC[C@H]1C#N (relative stereo) [Example 015, (trans)-2-[[2-[(2-hydroxy-1,2-benzoxaborinin-6-yl)amino]-5-methyl-pyrimidin-4-yl]amino]cyclohexanecarbonitrile] | 9 | 103 | – | – |
| N#C[C@@H]1CCCC[C@H]1Nc1nc(Nc2cc(Cl)c3c(c2)COB3O)ncc1Cl (relative stereo) [Example 019, (trans)-2-((5-chloro-2-((7-chloro-1-hydroxy-1,3-dihydrobenzo[c][1,2]oxaborol-5-yl)amino)pyrimidin-4-yl)amino)cyclohexane-1-carbonitrile] | 0.2 | 3.2 | – | – |
| N#C[C@@H]1CCCC[C@H]1Nc1nc(Nc2cc(Cl)c3c(c2)COB3O)ncc1F (relative stereo) [Example 020, (trans)-2-[[2-[(7-chloro-1-hydroxy-3H-2,1-benzoxaborol-5-yl)amino]-5 fluoropyrimidin-4-yl]amino]cyclohexanecarbonitrile] | 1.4 | 50.7 | – | – |
| N#C[C@@H]1CCCC[C@H]1Nc1nc(Nc2cc(Cl)c3c(c2)COB3O)ncc1C(F)(F)F (relative stereo) [Example 021, (trans)-2-((2-((7-chloro-1-hydroxy-1,3-dihydrobenzo[c][1,2]oxaborol-5-yl)amino)-5-(trifluoromethyl)pyrimidin-4-yl)amino)cyclohexanecarbonitrile] | 2.7 | 3.2 | – | – |
| N#C[C@@H]1CCC[C@H]1Nc1nc(Nc2cc(Cl)c3c(c2)COB3O)ncc1C(F)(F)F (relative stereo) [Example 022, (trans)-2-[[2-[(7-chloro-1-hydroxy-3H-2,1-benzoxaborol-5-yl)amino]-5-(trifluoromethyl)pyrimidin-4-yl]amino]cyclopentanecarbonitrile] | 3.3 | 7.5 | – | – |
| N#C[C@@H]1CCCC[C@H]1Nc1nc(Nc2cc(F)c3c(c2)COB3O)ncc1Cl (relative stereo) [Example 023, (trans)-2-((5-chloro-2-((7 fluoro-1-hydroxy-1,3-dihydrobenzo[c][1,2]oxaborol-5-yl)amino)pyrimidin-4-yl)amino)cyclohexane-1-carbonitrile] | 0.2 | 0.6 | – | – |
| Cc1cnc(Nc2cc(C#N)c3c(c2)COB3O)nc1N[C@@H]1COCC[C@H]1C#N (relative stereo) [Example 045, 5-((4-(((trans)-4-cyanotetrahydro-2H-pyran-3-yl)amino)-5-methylpyrimidin-2-yl)amino)-1-hydroxy-1,3-dihydrobenzo[c][1,2]oxaborole-7-carbonitrile] | 0.5 | 10.6 | – | – |
| N#C[C@@H]1CCOC[C@H]1Nc1nc(Nc2cc(Cl)c3c(c2)COB3O)ncc1F (relative stereo) [Example 046, (trans)-3-((2-((7-chloro-1-hydroxy-1,3-dihydrobenzo[c][1,2]oxaborol-5-yl)amino)-5-fluoropyrimidin-4-yl)amino) tetrahydro-2H-pyran-4-carbonitrile] | 3.4 | 186 | – | – |
| N#C[C@@H]1CCOC[C@H]1Nc1nc(Nc2ccc3c(c2)COB3O)ncc1Cl (relative stereo) [Example 047, (trans)-3-((5-chloro-2-((1-hydroxy-1,3-dihydrobenzo[c][1,2]oxaborol-5-yl)amino)pyrimidin-4-yl)amino)tetrahydro-2H-pyran-4-carbonitrile] | 0.34 | 7.6 | – | – |
| N#C[C@@H]1CCOC[C@H]1Nc1nc(Nc2cc(Cl)c3c(c2)COB3O)ncc1Cl (relative stereo) [Example 048, (trans)-3-[[5-chloro-2-[(7-chloro-1-hydroxy-3H-2,1-benzoxaborol-5-yl)amino]pyrimidin-4-yl]amino]tetrahydropyran-4-carbonitrile] | 0.6 | 15.6 | – | – |
| Cc1cnc(Nc2cc(Cl)c3c(c2)COB3O)nc1N[C@H]1CCCC[C@@H]1C#N (single isomer, unassigned) [Example 010b, (trans)-2-[[2-[(7-chloro-1-hydroxy-3H-2,1-benzoxaborol-5-yl)amino]-5-methyl-pyrimidin-4-yl]amino]cyclohexanecarbonitrile] | 22.3 | 811 | – | – |
| Cc1cnc(Nc2cc3c4c(c2)OCCOB4OC3)nc1NC1CCCCC1C#N (stereo not drawn) [Example 013, (trans)-2-((2-((7,8-dihydro-2H-1,6,9-trioxa-9a-borabenzo[c,d]azulen-4-yl)amino)-5-methylpyrimidin-4-yl)amino)cyclohexane-1-carbonitrile] | 2.6 | 101 | – | – |
| Cc1cc(Nc2ncc(Cl)c(NC3CCCCC3C#N)n2)cc2c1B(O)OC2 (stereo not shown) [Example 024, 2-[[5-chloro-2-[(1-hydroxy-7-methyl-3H-2,1-benzoxaborol-5-yl)amino]pyrimidin-4-yl]amino]cyclohexanecarbonitrile] | 5.9 | 11.2 | – | – |
| Cc1cnc(Nc2ccc3c(c2)C(C)OB3O)nc1NC1COCCC1C#N (stereo not drawn) [Example 028, (trans)-3-[[2-[(1-hydroxy-3-methyl-3H-2,1-benzoxaborol-5-yl)amino]-5-methyl-pyrimidin-4-yl]amino]tetrahydropyran-4-carbonitrile] | 0.5 | 3.5 | – | – |
| OB1OCc2cc(Nc3ncc(F)c(NC4CCCC4)n3)ccc21 [Example C013] | – | – | 32.3 | 705 |

Reference: patent US20240132525A1, “BORON […], CO[…], METHODS AND USES THEREOF” (priority 2022, published 2024)
